Assay results reported in the supplement of paper PMC4862054.

How the values were obtained:
MDA-MB-436 = experiment: normalised response (% of control), CellTiter-Glo; higher = more viable cells (100 = DMSO, 0 = benzethonium chloride kill control); details: incubation time: 72 h
Method: (§1)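 DSRT, 72 h incubation, CellTox Green / CellTiter-Glo readout. Signal is normalised to DMSO and benzethonium chloride controls. Value is the normalised response at the highest dose.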

MDA-MB-231 [1] = experiment: as above; details: incubation time: 72 h
Method: as §1

BT-474 = experiment: as above; details: incubation time: 72 h
Method: as §1

DU-4475 [2] = experiment: as above; details: incubation time: 72 h
Method: as §1

HDQ-P1 [3] = experiment: as above; details: incubation time: 72 h
Method: as §1

Hs578T = experiment: as above; details: incubation time: 72 h
Method: as §1

MDA-MB-453 [4] = experiment: as above; details: incubation time: 72 h
Method: as §1

CAL-85-1 [5] = experiment: as above; details: incubation time: 72 h
Method: as §1

DU-4475 [6] = experiment: normalised viability (% of control), CellTiter-Blue; higher = more viable cells (about 100 = DMSO control); details: incubation time: 72 h
Outline: (§2)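 Normalised viability is given for a single listed concentration of the series. In 384-well plates, breast cancer cell lines were incubated 72 h with compound, then read with CellTiter-Blue (2 h, 37 °C) at 560/590 nm. Per-plate scaling set vehicle to 100 and a positive kill control to 0, with Z'-factor quality control.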

HDQ-P1 [7] = experiment: as above; details: incubation time: 72 h
Outline: as §2

CAL-51 [8] = experiment: as above; details: incubation time: 72 h
Outline: as §2

MDA-MB-453 [9] = experiment: as above; details: incubation time: 72 h
Outline: as §2

CAL-148 [10] = experiment: as above; details: incubation time: 72 h
Outline: as §2

CAL-85-1 [11] = experiment: as above; details: incubation time: 72 h
Outline: as §2

HDQ-P1 [12] = details: 72 h
Outline: (§3)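 The reported EC50 was fitted from percent-inhibition dose-response curves and censored at the highest concentration. Breast cancer cell lines (20 µl suspension) were added to 384-well plates containing compound in 5 µl medium and incubated 72 h, and viability was read with 2.5 µl CellTiter-Blue over 2 h at 37 °C at 560/590 nm. Each plate was normalised to vehicle and a positive kill control and checked by Z'-factor, and rows with zero drug sensitivity score were dropped.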

CAL-51 [13] = details: 72 h
Outline: as §3

MDA-MB-453 [14] = details: 72 h
Outline: as §3

CAL-148 [15] = details: 72 h
Outline: as §3

CAL-85-1 [16] = details: 72 h
Outline: as §3

DU-4475 [17] = details: 72 h
Outline: as §3

MDA-MB-231 [18] = details: 72 h
Method: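 Drug sensitivity and resistance testing (DSRT) of breast cancer cell lines in 384-well plates, 5 concentrations in 10-fold dilutions over a compound-specific 10,000-fold range. After 72 h, cytotoxicity was read by CellTox Green fluorescence and viability by CellTiter-Glo luminescence (multiplexed), normalised to DMSO and benzethonium chloride controls. EC50 is the inflection point of the fitted dose-response curve (bottom asymptote free, so it can be relative for partial curves) and is censored at the highest tested concentration. Rows with DSS 0 (no meaningful response) were excluded.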

| SMILES | normalised response (MDA-MB-436) [%] | normalised response (MDA-MB-231 [1]) [%] | normalised response (BT-474) [%] | normalised response (DU-4475 [2]) [%] | normalised response (HDQ-P1 [3]) [%] | normalised response (Hs578T) [%] | normalised response (MDA-MB-453 [4]) [%] | normalised response (CAL-85-1 [5]) [%] | normalised viability (DU-4475 [6]) [%] | normalised viability (HDQ-P1 [7]) [%] | normalised viability (CAL-51 [8]) [%] | normalised viability (MDA-MB-453 [9]) [%] | normalised viability (CAL-148 [10]) [%] | normalised viability (CAL-85-1 [11]) [%] | EC50, CellTiter-Blue viability (HDQ-P1 [12]) [µM] | EC50, CellTiter-Blue viability (CAL-51 [13]) [µM] | EC50, CellTiter-Blue viability (MDA-MB-453 [14]) [µM] | EC50, CellTiter-Blue viability (CAL-148 [15]) [µM] | EC50, CellTiter-Blue viability (CAL-85-1 [16]) [µM] | EC50, CellTiter-Blue viability (DU-4475 [17]) [µM] | EC50, CellTox Green (MDA-MB-231 [18]) [µM] |
| --- | --- | --- | --- | --- | --- | --- | --- | --- | --- | --- | --- | --- | --- | --- | --- | --- | --- | --- | --- | --- | --- |
| Cn1cnc2c(F)c(Nc3ccc(Br)cc3F)c(C(=O)NOCCO)cc21 [MEK-162] (1000 nM) | 94 | 74.8 | 73.9 | 1.31 | 71.5 | 90 | 97.9 | 78.8 | -0.34 | 91.2 | 84.5 | 122 | 90.6 | 70.5 |  |  |  |  |  |  |  |
| C[C@@H]1C=C2C(=O)O[C@@H]3CC[C@H](C1)[C@]23O [Galiellalactone] |  |  |  |  |  |  |  |  |  |  |  |  |  |  | 39.4 | 48.9 | 7.21 | 16.1 | 6.9 |  |  |
| Cn1cnc2c(F)c(Nc3ccc(Br)cc3F)c(C(=O)NOCCO)cc21 [MEK-162] |  |  |  |  |  |  |  |  |  |  |  |  |  |  |  |  |  |  |  | 0.0389 |  |
| O=c1[nH]cc(F)c(=O)[nH]1 [Fluorouracil] |  |  |  |  |  |  |  |  |  |  |  |  |  |  |  | 5.39 | 3.9 | 0.944 | 0.68 | 2.57 |  |
| CCOc1cc2ncc(C#N)c(Nc3ccc(OCc4ccccn4)c(Cl)c3)c2cc1NC(=O)/C=C/CN(C)C [Neratinib] (1000 nM) | 56.3 | 74.2 | 79.1 | 95.3 | 46.3 | 72.3 | 63.7 | 42.6 | 105 | 116 | 92.5 | 75.8 | 79.5 | 101 |  |  |  |  |  |  |  |
| COC(=O)C[C@](O)(CCCC(C)(C)O)C(=O)O[C@@H]1C(OC)=C[C@]23CCCN2CCc2cc4c(cc2[C@H]13)OCO4 [Omacetaxine] |  |  |  |  |  |  |  |  |  |  |  |  |  |  | 0.0138 | 0.0215 | 0.0247 | 0.0137 | 0.0174 | 0.00548 | 0.62 |
| CCS(=O)(=O)c1cccc(-c2cc(C(=O)NC3CCN(C)CC3)c(C)c3[nH]c4ncc(C)cc4c23)c1 [TAK-901] |  |  |  |  |  |  |  |  |  |  |  |  |  |  | 0.26 | 0.179 | 0.0128 |  | 0.344 | 0.806 | 0.184 |
| O=c1[nH]cc(F)c(=O)[nH]1 [Fluorouracil] (10000 nM) | 75.8 | 82.2 | 92.7 | 99.5 | 91.8 | 93.7 | 94.8 | 57.5 | 75.2 | 74.4 | 47.9 | 72.9 | 55.4 | 58.3 |  |  |  |  |  |  |  |
| C[C@@H]1C=C2C(=O)O[C@@H]3CC[C@H](C1)[C@]23O [Galiellalactone] (50000 nM) | 89.5 | 106 | 108 | 102 | 93.9 | 101 | 105 | 72.2 | 77.4 | 41.7 | 43.1 | 9.52 | 22.4 | 9.47 |  |  |  |  |  |  |  |
| COC1=C2C[C@@H](C)C[C@H](OC)[C@H](O)[C@@H](C)/C=C(\C)[C@H](OC(N)=O)[C@@H](OC)/C=C\C=C(/C)C(=O)NC(=CC1=O)C2=O [Geldanamycin] (10000 nM) | 24.4 | 3.82 | 8.17 | 0.14 | 19 | 16.8 | 29.5 | 10.5 | -0.94 | 14.5 | 2.17 | 7.62 | 7.57 | 6.88 |  |  |  |  |  |  |  |
| O=C(c1ccc(OCCN2CCCCC2)cc1)c1c(-c2ccc(O)cc2)sc2cc(O)ccc12 [Raloxifene] (10000 nM) | 71.8 | 68.5 | 62.3 | 90.1 | 86.8 | 96.9 | 66.1 | 76.7 | 113 | 105 | 105 | 45.7 | 125 | 98.6 |  |  |  |  |  |  |  |
| CN1CCN(c2ccc3nc(-c4c(N)c5c(F)cccc5[nH]c4=O)[nH]c3c2)CC1 [Dovitinib] (10000 nM) | 87.6 | 94 | 91.5 | 99.9 | 89.8 | 95.8 | 96.4 | 95.9 | 96.7 | 96.4 | 108 | 79 | 88.5 | 87.1 |  |  |  |  |  |  |  |
